Numbered stars: 1 amine (or outer) side, 2 acyl side, 3 side chain; on linkers, the order of the positions; unused ones are H or OH. Bridge positions count the residues as written; N and C are the ends. Square brackets hold non-standard residues; d marks the D form. Side chains are listed from the residue outwards. Peptide text beside a SMILES is read from it. * marks the point of attachment. C20 diacid = O=C(O)CCCCCCCCCCCCCCCCCCC(=O)*; C18 diacid = O=C(O)CCCCCCCCCCCCCCCCC(=O)*; γGlu = O=C(O)[C@H](CCC(=O)[*:2])N[*:1]; Hyp = O=C(O)[C@@H]1C[C@@H](O)CN1; AEEA = NCCOCCOCC(=O)O
Target: T1, human amylin receptor (Homo sapiens, UniProt O60896+P30988)
T1 construct: host or cells: CHO-K1/Ga15/AMY3 cells, further stably transfected with a CRE-luciferase plasmid
T1 sequence (P30988 25-474): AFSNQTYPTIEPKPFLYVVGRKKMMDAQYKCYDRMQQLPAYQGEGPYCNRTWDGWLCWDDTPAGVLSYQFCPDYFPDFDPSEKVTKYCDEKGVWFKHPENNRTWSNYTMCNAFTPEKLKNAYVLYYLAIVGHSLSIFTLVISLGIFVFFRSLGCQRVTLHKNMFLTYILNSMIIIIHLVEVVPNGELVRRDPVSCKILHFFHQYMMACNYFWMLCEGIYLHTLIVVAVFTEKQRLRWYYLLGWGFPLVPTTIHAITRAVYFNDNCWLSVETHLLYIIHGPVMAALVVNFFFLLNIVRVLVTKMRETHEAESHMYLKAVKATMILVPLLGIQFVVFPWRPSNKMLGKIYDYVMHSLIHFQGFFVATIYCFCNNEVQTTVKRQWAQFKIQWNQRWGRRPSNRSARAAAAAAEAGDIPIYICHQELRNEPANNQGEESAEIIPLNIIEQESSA
T1 sequence (O60896 24-148 partner): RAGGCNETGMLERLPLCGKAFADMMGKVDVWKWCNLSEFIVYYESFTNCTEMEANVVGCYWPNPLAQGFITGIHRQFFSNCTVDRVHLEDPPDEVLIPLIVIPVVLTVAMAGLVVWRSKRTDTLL
Test: Luciferase assay of amylin derivatives in amylin receptor/CRE-luc CHO cell line
Type: cell-based
Details: CHO-K1/Ga15/AMY3 CRE-luc cells, 24 hours incubation, F12 medium containing 10% FBS; read-out: EC50
Method: The experiment was intended to detect the activity or efficacy of the amylin derivatives on a human amylin receptor in vitro by luciferase assay.
50 μL of growth medium (F12 medium containing 10% FBS) was added into each well of a white 96-well plate, and the stably transfected amylin/CRE-lue CHO cells were inoculated into the white 96-well plate at a density of about 20,000 cells/well for activity determination.

Compound | EC50 [nM]
CC[C@H](C)[C@H](NC(=O)[C@@H]1CCCN1C(=O)CNC(=O)[C@H](CCCCNC(=O)COCCOCCNC(=O)COCCOCCNC(=O)CC[C@H](NC(=O)CCCCCCCCCCCCCCCCCCC(=O)O)C(=O)O)NC(=O)[C@H](CC(N)=O)NC(=O)[C@H](CC(N)=O)NC(=O)[C@H](CO)NC(=O)[C@H](CO)NC(=O)[C@H](Cc1c[nH]cn1)NC(=O)[C@H](CCCNC(=N)N)NC(=O)[C@H](CC(C)C)NC(=O)[C@H](Cc1ccccc1)NC(=O)[C@H](CC(=O)O)NC(=O)[C@H](C)NC(=O)[C@H](CC(C)C)NC(=O)[C@H](CCCNC(=N)N)NC(=O)[C@H](CCC(N)=O)NC(=O)[C@@H](NC(=O)[C@H](C)NC(=O)[C@@H]1CSSC[C@H](NC(=O)[C@@H](N)CCCNC(=N)N)C(=O)N[C@@H](CC(N)=O)C(=O)N[C@@H]([C@@H](C)O)C(=O)N[C@@H](C)C(=O)N[C@@H]([C@@H](C)O)C(=O)N1)[C@@H](C)O)C(=O)N[C@@H](CC(C)C)C(=O)N1CCC[C@H]1C(=O)N1CCC[C@H]1C(=O)N[C@H](C(=O)N[C@@H](CC(N)=O)C(=O)N[C@H](C(=O)NCC(=O)N[C@@H](CO)C(=O)N[C@@H](CC(N)=O)C(=O)N[C@H](C(=O)N1C[C@H](O)C[C@H]1C(N)=O)[C@@H](C)O)C(C)C)[C@@H](C)O [PD083] (H-RCNTATCATQRLADFLRHSSNNK([AEEA-AEEA-γGlu-C20 diacid])GPILPPTNVGSNT[Hyp]-NH2; disulfide 2-7) | 0.037
CC[C@H](C)[C@H](NC(=O)[C@@H]1CCCN1C(=O)CNC(=O)[C@H](CC(C)C)NC(=O)[C@H](CCCCNC(=O)CC[C@H](NC(=O)CCCCCCCCCCCCCCCCCCC(=O)O)C(=O)O)NC(=O)[C@H](CC(N)=O)NC(=O)[C@H](CO)NC(=O)[C@H](CO)NC(=O)[C@H](Cc1c[nH]cn1)NC(=O)[C@H](CCCNC(=N)N)NC(=O)[C@H](CC(C)C)NC(=O)[C@H](Cc1ccccc1)NC(=O)[C@H](CC(=O)O)NC(=O)[C@H](C)NC(=O)[C@H](CC(C)C)NC(=O)[C@H](CCCNC(=N)N)NC(=O)[C@H](CCC(N)=O)NC(=O)[C@@H](NC(=O)[C@H](C)NC(=O)[C@@H]1CSSC[C@H](NC(=O)[C@@H](N)CCCNC(=N)N)C(=O)N[C@@H](CC(N)=O)C(=O)N[C@@H]([C@@H](C)O)C(=O)N[C@@H](C)C(=O)N[C@@H]([C@@H](C)O)C(=O)N1)[C@@H](C)O)C(=O)N[C@@H](CC(C)C)C(=O)N1CCC[C@H]1C(=O)N1CCC[C@H]1C(=O)N[C@H](C(=O)N[C@@H](CC(N)=O)C(=O)N[C@H](C(=O)NCC(=O)N[C@@H](CO)C(=O)N[C@@H](CC(N)=O)C(=O)N[C@H](C(=O)N1C[C@H](O)C[C@H]1C(N)=O)[C@@H](C)O)C(C)C)[C@@H](C)O [PD086] (H-RCNTATCATQRLADFLRHSSNK([γGlu-C20 diacid])LGPILPPTNVGSNT[Hyp]-NH2; disulfide 2-7) | 0.033
CC[C@H](C)[C@H](NC(=O)[C@@H]1CCCN1C(=O)CNC(=O)[C@H](CC(C)C)NC(=O)[C@H](CC(N)=O)NC(=O)[C@H](CCCCNC(=O)CC[C@H](NC(=O)CCCCCCCCCCCCCCCCCCC(=O)O)C(=O)O)NC(=O)[C@H](CO)NC(=O)[C@H](CO)NC(=O)[C@H](Cc1c[nH]cn1)NC(=O)[C@H](CCCNC(=N)N)NC(=O)[C@H](CC(C)C)NC(=O)[C@H](Cc1ccccc1)NC(=O)[C@H](CC(=O)O)NC(=O)[C@H](C)NC(=O)[C@H](CC(C)C)NC(=O)[C@H](CCCNC(=N)N)NC(=O)[C@H](CCC(N)=O)NC(=O)[C@@H](NC(=O)[C@H](C)NC(=O)[C@@H]1CSSC[C@H](NC(=O)[C@@H](N)CCCNC(=N)N)C(=O)N[C@@H](CC(N)=O)C(=O)N[C@@H]([C@@H](C)O)C(=O)N[C@@H](C)C(=O)N[C@@H]([C@@H](C)O)C(=O)N1)[C@@H](C)O)C(=O)N[C@@H](CC(C)C)C(=O)N1CCC[C@H]1C(=O)N1CCC[C@H]1C(=O)N[C@H](C(=O)N[C@@H](CC(N)=O)C(=O)N[C@H](C(=O)NCC(=O)N[C@@H](CO)C(=O)N[C@@H](CC(N)=O)C(=O)N[C@H](C(=O)N1C[C@H](O)C[C@H]1C(N)=O)[C@@H](C)O)C(C)C)[C@@H](C)O [PD090] (H-RCNTATCATQRLADFLRHSSK([γGlu-C20 diacid])NLGPILPPTNVGSNT[Hyp]-NH2; disulfide 2-7) | 0.031

The next compounds have a lower EC50 than those just listed; values first:

EC50 [nM] | Compound
0.018 | CC[C@H](C)[C@H](NC(=O)[C@@H]1CCCN1C(=O)CNC(=O)[C@H](CC(C)C)NC(=O)[C@H](CCCCNC(=O)COCCOCCNC(=O)COCCOCCNC(=O)CC[C@H](NC(=O)CCCCCCCCCCCCCCCCC(=O)O)C(=O)O)NC(=O)[C@H](CC(N)=O)NC(=O)[C@H](CO)NC(=O)[C@H](CO)NC(=O)[C@H](Cc1c[nH]cn1)NC(=O)[C@H](CCCNC(=N)N)NC(=O)[C@H](CC(C)C)NC(=O)[C@H](Cc1ccccc1)NC(=O)[C@H](CC(=O)O)NC(=O)[C@H](C)NC(=O)[C@H](CC(C)C)NC(=O)[C@H](CCCNC(=N)N)NC(=O)[C@H](CCC(N)=O)NC(=O)[C@@H](NC(=O)[C@H](C)NC(=O)[C@@H]1CSSC[C@H](NC(=O)[C@@H](N)CCCNC(=N)N)C(=O)N[C@@H](CC(N)=O)C(=O)N[C@@H]([C@@H](C)O)C(=O)N[C@@H](C)C(=O)N[C@@H]([C@@H](C)O)C(=O)N1)[C@@H](C)O)C(=O)N[C@@H](CC(C)C)C(=O)N1CCC[C@H]1C(=O)N1CCC[C@H]1C(=O)N[C@H](C(=O)N[C@@H](CC(N)=O)C(=O)N[C@H](C(=O)NCC(=O)N[C@@H](CO)C(=O)N[C@@H](CC(N)=O)C(=O)N[C@H](C(=O)N1C[C@H](O)C[C@H]1C(N)=O)[C@@H](C)O)C(C)C)[C@@H](C)O [PD089] (H-RCNTATCATQRLADFLRHSSNK([AEEA-AEEA-γGlu-C18 diacid])LGPILPPTNVGSNT[Hyp]-NH2; disulfide 2-7)
0.008 | CC[C@H](C)[C@H](NC(=O)[C@@H]1CCCN1C(=O)CNC(=O)[C@H](CCCCNC(=O)CC[C@H](NC(=O)CCCCCCCCCCCCCCCCC(=O)O)C(=O)O)NC(=O)[C@H](CC(N)=O)NC(=O)[C@H](CC(N)=O)NC(=O)[C@H](CO)NC(=O)[C@H](CO)NC(=O)[C@H](Cc1c[nH]cn1)NC(=O)[C@H](CCCNC(=N)N)NC(=O)[C@H](CC(C)C)NC(=O)[C@H](Cc1ccccc1)NC(=O)[C@H](CC(=O)O)NC(=O)[C@H](C)NC(=O)[C@H](CC(C)C)NC(=O)[C@H](CCCNC(=N)N)NC(=O)[C@H](CCC(N)=O)NC(=O)[C@@H](NC(=O)[C@H](C)NC(=O)[C@@H]1CSSC[C@H](NC(=O)[C@@H](N)CCCNC(=N)N)C(=O)N[C@@H](CC(N)=O)C(=O)N[C@@H]([C@@H](C)O)C(=O)N[C@@H](C)C(=O)N[C@@H]([C@@H](C)O)C(=O)N1)[C@@H](C)O)C(=O)N[C@@H](CC(C)C)C(=O)N1CCC[C@H]1C(=O)N1CCC[C@H]1C(=O)N[C@H](C(=O)N[C@@H](CC(N)=O)C(=O)N[C@H](C(=O)NCC(=O)N[C@@H](CO)C(=O)N[C@@H](CC(N)=O)C(=O)N[C@H](C(=O)N1C[C@H](O)C[C@H]1C(N)=O)[C@@H](C)O)C(C)C)[C@@H](C)O [PD084] (H-RCNTATCATQRLADFLRHSSNNK([γGlu-C18 diacid])GPILPPTNVGSNT[Hyp]-NH2; disulfide 2-7 (inferred); N-terminus assumed)
0.005 | CC[C@H](C)[C@H](NC(=O)[C@@H]1CCCN1C(=O)CNC(=O)[C@H](CCCCNC(=O)COCCOCCNC(=O)COCCOCCNC(=O)CC[C@H](NC(=O)CCCCCCCCCCCCCCCCC(=O)O)C(=O)O)NC(=O)[C@H](CC(N)=O)NC(=O)[C@H](CC(N)=O)NC(=O)[C@H](CO)NC(=O)[C@H](CO)NC(=O)[C@H](Cc1c[nH]cn1)NC(=O)[C@H](CCCNC(=N)N)NC(=O)[C@H](CC(C)C)NC(=O)[C@H](Cc1ccccc1)NC(=O)[C@H](CC(=O)O)NC(=O)[C@H](C)NC(=O)[C@H](CC(C)C)NC(=O)[C@H](CCCNC(=N)N)NC(=O)[C@H](CCC(N)=O)NC(=O)[C@@H](NC(=O)[C@H](C)NC(=O)[C@@H]1CSSC[C@H](NC(=O)[C@@H](N)CCCNC(=N)N)C(=O)N[C@@H](CC(N)=O)C(=O)N[C@@H]([C@@H](C)O)C(=O)N[C@@H](C)C(=O)N[C@@H]([C@@H](C)O)C(=O)N1)[C@@H](C)O)C(=O)N[C@@H](CC(C)C)C(=O)N1CCC[C@H]1C(=O)N1CCC[C@H]1C(=O)N[C@H](C(=O)N[C@@H](CC(N)=O)C(=O)N[C@H](C(=O)NCC(=O)N[C@@H](CO)C(=O)N[C@@H](CC(N)=O)C(=O)N[C@H](C(=O)N1C[C@H](O)C[C@H]1C(N)=O)[C@@H](C)O)C(C)C)[C@@H](C)O [PD085] (H-RCNTATCATQRLADFLRHSSNNK([AEEA-AEEA-γGlu-C18 diacid])GPILPPTNVGSNT[Hyp]-NH2; disulfide 2-7)

— patent US20260166128A1, “HUMAN AMYLIN ANALOG, AND DERIVATIVE THEREOF AND USE THEREOF” (priority 2022, published 2026)
